Measured values as given in ChEMBL document CHEMBL1201862, “PubChem BioAssay data set” (2004).
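Method: 48-hour compound exposure of cells in 96-well plates, five concentrations, linear interpolation of endpoints. Abbreviation: GI50, concentration required for 50% inhibition of growth.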 The source made the active and inactive calls. Cut-off read from the data, not from the text of the source: active = GI50 up to about 1.1 µM and inactive = higher.

Assays:
Assay in all cases: NCI tumour cell line growth inhibition, 48 h
[1] = tested on: COLO 205
[2] = tested on: CAKI-1
[3] = tested on: K562
[4] = tested on: MDA-N
[5] = tested on: DU-145
[6] = tested on: SK-MEL-28
[7] = tested on: SW-620
[8] = tested on: HOP-62
[9] = tested on: IGROV-1
[10] = tested on: MOLT-4
[11] = tested on: NCI-H23
[12] = tested on: OVCAR-8
[13] = tested on: EKVX
[14] = tested on: U-251
[15] = tested on: HCC 2998
[16] = tested on: T47D
[17] = tested on: SK-MEL-2
[18] = tested on: HCT-15
[19] = tested on: MDA-MB-231
[20] = tested on: BT-549

Compound | GI50 [1] | GI50 [2] | GI50 [3] | GI50 [4] | GI50 [5] | GI50 [6] | GI50 [7] | GI50 [8] | GI50 [9] | GI50 [10] | GI50 [11] | GI50 [12] | GI50 [13] | GI50 [14] | GI50 [15] | GI50 [16] | GI50 [17] | GI50 [18] [µM] | GI50 [19] | GI50 [20]
O=C1N[C@@H]2c3c(Br)sc(Br)c3C(=O)[C@@H]2N1 | 3.78 µM (inactive) | 3.8 µM (inactive) | 2.1 µM (inactive) | 2.08 µM (inactive) | 5.86 µM (inactive) | 3.78 µM (inactive) | 1.77 µM (inactive) | 6.65 µM (inactive) | 2.26 µM (inactive) | 2.76 µM (inactive) | 4.43 µM (inactive) | 2.9 µM (inactive) | 4.08 µM (inactive) | 2.53 µM (inactive) | 1.81 µM (inactive) | 5.64 µM (inactive) | 4.82 µM (inactive) | 3.16 | 4.83 µM (inactive) | 17 µM (inactive)
O=c1[nH]c2cccc([N+](=O)[O-])c2c(=O)n1-c1ccc(Cl)cc1 | 4.24 µM (inactive) | 2.64 µM (inactive) | 1.48 µM (inactive) | 11.3 µM (inactive) | 15.1 µM (inactive) | 13.4 µM (inactive) | 10.4 µM (inactive) | 18.6 µM (inactive) | 16.7 µM (inactive) | 19 µM (inactive) | 20.3 µM (inactive) | 11.8 µM (inactive) | 10.8 µM (inactive) | 16.4 µM (inactive) | 14 µM (inactive) | 11 µM (inactive) | 9.86 µM (inactive) | 12.1 | 15.8 µM (inactive) | 10.7 µM (inactive)
COc1cc(/N=N/c2cccc(S(N)(=O)=O)c2)c2ccccc2c1N | 13 µM (inactive) | 7.06 µM (inactive) | 12.2 µM (inactive) | 2.41 µM (inactive) | 1.9 µM (inactive) | 7.11 µM (inactive) | 23.9 µM (inactive) | 7.35 µM (inactive) | 10.3 µM (inactive) | 5.65 µM (inactive) | 2.02 µM (inactive) | 16.3 µM (inactive) | 13.8 µM (inactive) | 7.48 µM (inactive) | 8.04 µM (inactive) | 13.2 µM (inactive) | 2.26 µM (inactive) | 18.2 | 10.5 µM (inactive) | 7.33 µM (inactive)
CC(=O)N(C(=O)CC(=O)N1N=C(c2ccccc2)C(/N=N/c2ccccc2[N+](=O)[O-])C1=O)c1ccc(Cl)cc1 (stereo not given) | > 10 µM (inactive) | > 10 µM (inactive) | > 10 µM (inactive) | > 10 µM (inactive) | > 10 µM (inactive) | > 10 µM (inactive) | > 10 µM (inactive) | > 10 µM (inactive) | > 10 µM (inactive) | > 10 µM (inactive) | > 10 µM (inactive) | > 10 µM (inactive) | > 10 µM (inactive) | > 10 µM (inactive) | > 10 µM (inactive) | > 10 µM (inactive) | > 10 µM (inactive) | > 10 | > 10 µM (inactive) | > 10 µM (inactive)
c1ccc(-c2cc(-c3cc(-c4ccccc4)no3)on2)cc1 | 45.6 µM (inactive) | > 100 µM (inactive) | 17.9 µM (inactive) | > 100 µM (inactive) | > 100 µM (inactive) | > 100 µM (inactive) | > 100 µM (inactive) | 72.1 µM (inactive) | 35.2 µM (inactive) | 25.2 µM (inactive) | 49.1 µM (inactive) | 13.8 µM (inactive) | 72.6 µM (inactive) | 29.2 µM (inactive) | > 100 µM (inactive) | 81.3 µM (inactive) | > 100 µM (inactive) | > 100 | 24.1 µM (inactive) | > 100 µM (inactive)
O=C(C1OC1c1ccc(O)cc1)C12CC3CC(CC(C3)C1)C2 (stereo not given) | 29.5 µM (inactive) | 40.8 µM (inactive) | 23.7 µM (inactive) | > 57.1 µM (inactive) | > 100 µM (inactive) | > 100 µM (inactive) | 27.7 µM (inactive) | > 100 µM (inactive) | > 86.1 µM (inactive) | 17.8 µM (inactive) | 97.9 µM (inactive) | 50 µM (inactive) | > 58.1 µM (inactive) | > 76 µM (inactive) | > 100 µM (inactive) | 22.9 µM (inactive) | > 100 µM (inactive) | 53.2 | > 100 µM (inactive) | 31.2 µM (inactive)
O=c1[nH]c(=O)n(C2CC(O)C(CS)O2)cc1F (stereo not given) | 52.5 µM (inactive) | > 81.7 µM (inactive) | > 93.3 µM (inactive) | 86.9 µM (inactive) | 61.2 µM (inactive) | 74.1 µM (inactive) | > 86.1 µM (inactive) | 37.2 µM (inactive) | > 100 µM (inactive) | 62.5 µM (inactive) | > 94.4 µM (inactive) | 14.8 µM (inactive) | > 100 µM (inactive) | 72.8 µM (inactive) | 4.61 µM (inactive) | > 76.2 µM (inactive) | > 100 µM (inactive) | 74.5 | > 80 µM (inactive) | > 100 µM (inactive)
COc1ccc(C(c2ccc(OC)cc2)N2C(=O)CCC2C(=O)O)cc1 (stereo not given) | > 100 µM (inactive) | > 100 µM (inactive) | > 100 µM (inactive) | > 100 µM (inactive) | > 100 µM (inactive) | > 100 µM (inactive) | > 100 µM (inactive) | > 100 µM (inactive) | > 100 µM (inactive) | > 100 µM (inactive) | > 100 µM (inactive) | > 100 µM (inactive) | > 100 µM (inactive) | > 100 µM (inactive) | > 100 µM (inactive) | > 100 µM (inactive) | > 100 µM (inactive) | > 100 | > 100 µM (inactive) | > 100 µM (inactive)
CC1(c2cccs2)CC(c2cccs2)=C(C#N)C(=C(C#N)C#N)N1 (stereo not given) | 16.9 µM (inactive) | 19.7 µM (inactive) | 23 µM (inactive) | 16.7 µM (inactive) | 15.6 µM (inactive) | 20.4 µM (inactive) | 11.4 µM (inactive) | 19.9 µM (inactive) | 17.7 µM (inactive) | 44.7 µM (inactive) | 19.4 µM (inactive) | 17.3 µM (inactive) | 18.1 µM (inactive) | 15.8 µM (inactive) | 15.9 µM (inactive) | 16.6 µM (inactive) | 17.8 µM (inactive) | 16.4 | 23.5 µM (inactive) | 21.5 µM (inactive)
Cc1cc2ccccc2n1CC(=O)NCC(C)C | > 100 µM (inactive) | > 100 µM (inactive) | > 100 µM (inactive) | > 100 µM (inactive) | > 100 µM (inactive) | > 100 µM (inactive) | > 100 µM (inactive) | > 100 µM (inactive) | > 100 µM (inactive) | > 100 µM (inactive) | > 100 µM (inactive) | > 100 µM (inactive) | > 100 µM (inactive) | > 100 µM (inactive) | > 100 µM (inactive) | > 100 µM (inactive) | > 100 µM (inactive) | > 100 | > 100 µM (inactive) | > 100 µM (inactive)
COc1nc2nccnc2c(=O)n1C | > 10 µM (inactive) | > 10 µM (inactive) | > 10 µM (inactive) | > 10 µM (inactive) | > 10 µM (inactive) | > 10 µM (inactive) | > 10 µM (inactive) | > 10 µM (inactive) | > 10 µM (inactive) | > 10 µM (inactive) | > 10 µM (inactive) | > 10 µM (inactive) | > 10 µM (inactive) | > 10 µM (inactive) | > 10 µM (inactive) | > 10 µM (inactive) | > 10 µM (inactive) | > 10 | > 10 µM (inactive) | > 10 µM (inactive)
CCOC(=O)C1(C(=O)OCC)C[C@H]2CON=C2[C@@H]1c1ccc(C(F)(F)F)cc1 | 26.2 µM (inactive) | 30.9 µM (inactive) | 35.2 µM (inactive) | 45.7 µM (inactive) | > 100 µM (inactive) | > 100 µM (inactive) | 68.1 µM (inactive) | 21.9 µM (inactive) | 12.5 µM (inactive) | 25.9 µM (inactive) | 58.7 µM (inactive) | 79.4 µM (inactive) | 29.5 µM (inactive) | 64.7 µM (inactive) | 31.9 µM (inactive) | 16.7 µM (inactive) | 62.2 µM (inactive) | 38.6 | > 100 µM (inactive) | 44.7 µM (inactive)
COc1cc2c(cc1O)[C@]1(Cc3ccc4c(c3C1=O)OCO4)N(C)CC2 | > 100 µM (inactive) | > 100 µM (inactive) | > 100 µM (inactive) | > 100 µM (inactive) | > 100 µM (inactive) | > 100 µM (inactive) | > 100 µM (inactive) | > 100 µM (inactive) | > 100 µM (inactive) | > 100 µM (inactive) | > 100 µM (inactive) | > 100 µM (inactive) | > 100 µM (inactive) | > 100 µM (inactive) | > 100 µM (inactive) | > 100 µM (inactive) | > 100 µM (inactive) | > 100 | > 100 µM (inactive) | > 100 µM (inactive)
COc1cc2cc(C(=O)N3CC(CCl)c4c3cc(N)c3ccccc43)[nH]c2c(OC)c1OC (stereo not given) | < 0.01 µM (active) | < 0.01 µM (active) | < 0.01 µM (active) | < 0.01 µM (active) | < 0.01 µM (active) | < 0.01 µM (active) | < 0.01 µM (active) | < 0.01 µM (active) | < 0.01 µM (active) | < 0.01 µM (active) | < 0.01 µM (active) | < 0.01 µM (active) | < 0.01 µM (active) | < 0.01 µM (active) | < 0.01 µM (active) | < 0.01 µM (active) | < 0.01 µM (active) | < 0.01 | < 0.01 µM (active) | < 0.01 µM (active)
